Columns and labels:
[1] = system: androgen-responsive genes in LNCaP cells; assay: qPCR expression of androgen-responsive genes in LNCaP cells; type: cell-based
AR = assay: Promoter activity assay (firefly luciferase reporter) in HEK293 cells overexpressing full-length wild-type AR; type: cell-based; conditions: for activation of androgen-responsive construct (firefly luciferase reporter under PSA gene promoter): HEK-293 cells overexpressing AR, in the presence of R1881 (FIG. 4A, FIG. 5)
PC-3 cells = assay: Growth of PC-3 cells in androgen-depleted CSS media (cell count); type: cell-based; conditions: different concentrations of Senexin B, p<0.05 vs DMSO (FIG. 7)
Text: PC-3 cell growth was previously shown to be inhibited by the inhibition of transcription factor NFκB^43-45, and CDK8/19 inhibition was discovered by Senex to decrease the induction of NFκB transcriptional activity (PCT Publication WO2013/040153).

C4-2 cells = assay: Growth of androgen-independent C4-2 cells in androgen-depleted CSS media (cell count); type: cell-based; conditions: different concentrations of Senexin B (FIG. 6A)
Text: (§1) In most of CRPC patients, prostate cancer tumor cells restore their AR activities despite low-androgen environment or presence of AR antagonists.

LNCaP-LN3 cells = assay: Growth of androgen-independent LNCaP-LN3 cells in androgen-depleted CSS media (cell count); type: cell-based; conditions: for growth (total cell number): LNCaP-LN3 cells, 5 μM Senexin B or 10 μM MDV3100 (FIG. 6B)
Text: as §1

[2] = system: AR-dependent genes in CWR22rv1 cells; assay: qPCR expression of AR-dependent genes KLK3 (PSA) and KLK2 in CWR22rv1 cells without androgen; type: cell-based; conditions: for expression of KLK2 / expression of PSA: absence of androgen, 5 μM Senexin B or 10 μM MDV3100 (FIG. 6D)
Text: (§2) Endogenous AR activities in these cells were estimated by qPCR analysis of mRNA expression of AR-dependent genes, KLK3 (PSA) and KLK2.

Water solubility = type: physicochemical
Text: (§3) These small molecules selectively bind to the ATP pockets of CDK8/19 to inhibit their kinase activity.

[3] = system: AR-dependent genes in C4-2 cells; assay: qPCR expression of AR-dependent genes KLK3 (PSA) and KLK2 in C4-2 cells without androgen; type: cell-based; conditions: CSS media 2d, treated 24 hours (FIG. 6C)
Text: as §2

[4] = system: LN-CaP LN3 (LN3) prostate cancer cells xenograft; assay: LNCaP-LN3 xenograft growth in nude mice; type: in vivo, nude male mice; conditions: 40 mg/kg i.p. daily
Procedure: 6-8 week-old nude male mice (Jackson Laboratory) were subcutaneously injected with 2 million LN-CaP LN3 (LN3) prostate cancer cells in the right flank, with Matrigel. Visible tumors formed ˜14 days after injection. […] The tumor size was measured by caliper 3 times per week and calculated by the equation length*width*width*0.5. […] At the end of the experiment, mice from each group were sacrificed to determine final tumor weight.

[5] = system: AR-dependent genes in LNCaP-LN3 cells; assay: qPCR expression of AR-dependent genes KLK3 (PSA) and KLK2 in LNCaP-LN3 cells without androgen; type: cell-based; conditions: for expression of KLK2 / expression of PSA: LNCaP-LN3 cells, absence of androgen, 5 μM Senexin B or 10 μM MDV3100 (FIG. 6D)
Text: as §2

CWR22rv1 cells = assay: Growth of androgen-independent CWR22rv1 cells in androgen-depleted CSS media (cell count); type: cell-based; conditions: for growth (total cell number): 5 μM Senexin B or 10 μM MDV3100 (FIG. 6B)
Text: as §1

CDK8 = CDK8 (Homo sapiens, UniProt P49336); assay: Senexin B inhibition of CDK8 kinase activity (Kd); type: binding
Text: The invention provides a method for treating prostate cancer in a subject comprising administering to the subject an effective amount of a selective inhibitor of one or more of CDK8 and CDK19. […] For purposes of the invention, “specific inhibitors of CDK8/19” are small molecule compounds that inhibit CDK8 or CDK8 and CDK19 to a greater extent than they inhibit certain other CDKs. In some embodiments, such compounds further inhibit CDK8 to a greater extent than CDK9. In preferred embodiments, such greater extent is at least 2-fold more than CDK9. Compounds that are useful in the invention are described in co-pending US Patent Publications 20120071477 and 20120071477 and PCT Publication WO2013/116786. Extent of inhibition is measured by the assays taught in co-pending PCT Publication WO2013/116786.
as §3

Chain of CDK8 (P49336 whole entry): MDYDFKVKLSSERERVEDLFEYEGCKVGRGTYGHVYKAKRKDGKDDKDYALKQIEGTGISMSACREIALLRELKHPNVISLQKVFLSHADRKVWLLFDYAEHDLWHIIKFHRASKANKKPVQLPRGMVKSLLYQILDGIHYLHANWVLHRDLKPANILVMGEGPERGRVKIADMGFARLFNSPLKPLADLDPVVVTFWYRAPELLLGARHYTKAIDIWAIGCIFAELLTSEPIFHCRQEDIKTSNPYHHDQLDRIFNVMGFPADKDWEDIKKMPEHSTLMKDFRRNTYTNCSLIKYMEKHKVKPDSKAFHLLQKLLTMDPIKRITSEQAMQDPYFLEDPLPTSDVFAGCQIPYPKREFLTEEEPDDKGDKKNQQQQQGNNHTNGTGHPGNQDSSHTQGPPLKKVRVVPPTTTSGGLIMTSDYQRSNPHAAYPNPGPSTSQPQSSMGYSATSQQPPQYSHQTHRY

N#Cc1ccc2ncnc(NCCc3ccccc3)c2c1 [Senexin A]
androgen-stimulated transcriptional activation of androgen-responsive genes PSA (KLK3), KLK2, TMPRSS2, PGC ([1]; LNCaP cells, Senexin A 5 μM, androgen-supplemented (500 pM R1881) or androgen-deprived conditions (FIG. 2A)): significantly inhibited | activation of androgen-responsive construct (firefly luciferase reporter under PGC gene promoter) (AR; HEK293 cells overexpressing AR, Senexin A 1 μM and 5 μM, in the presence of R1881 (FIG. 4B)): significantly inhibits | activation of androgen-responsive construct (firefly luciferase reporter under PSA gene promoter) (AR): significantly inhibited

CN1CCN(C(=O)c2ccc3cc(CCNc4ncnc5ccc(C#N)cc45)ccc3c2)CC1 [Senexin B]
effect on the inhibition of androgen-inhibited genes AR, OPRK1, STXBP6 by androgen ([1]; LNCaP cells, Senexin B 1 μM and 4 μM (FIG. 2C)): did not interfere with the inhibition | androgen-stimulated transcriptional activation of androgen-responsive genes PSA (KLK3), KLK2, TMPRSS2, SGK1, KLF5, PGC ([1]; LNCaP cells, Senexin B 1 μM and 4 μM, androgen-supplemented (500 pM R1881, 24 hr after 5-day deprivation) (FIG. 2B)): significantly inhibited | androgen-stimulated transcription of androgen-responsive genes after pretreatment ([1]; androgen-deprived LNCaP cells, Senexin B 1 μM and 4 μM added 1 hr before 500 pM R1881, p<0.05 vs DMSO (FIG. 3)): significantly inhibited | growth of PC-3 cells (total cell number) (PC-3 cells): inhibited | androgen-independent growth (total cell number) (C4-2 cells): strongly inhibited | androgen-independent growth (total cell number) (LNCaP-LN3 cells; LN3 cells, different concentrations of Senexin B (FIG. 6A)): strongly inhibited | growth (total cell number) (LNCaP-LN3 cells): strongly inhibited | activation of androgen-responsive construct (firefly luciferase reporter under PSA gene promoter) (AR): significantly inhibited | expression of PSA and KLK2 ([2]; CSS media 2d, treated 24 hours (FIG. 6C)): down-regulated | expression of KLK2 [2]: strongly down-regulates | expression of PSA [2]: strongly down-regulates | water solubility (Water solubility): ≤ 50 mM | expression of PSA and KLK2 [3]: down-regulated | appearance (health) of treated mice ([4]; 5 days per week for 2 weeks): looked as healthy as the mice in the vehicle control group | body weight of the hosts ([4]; 5 days per week for 2 weeks (FIG. 9)): no effects | tumor growth (tumor volume) ([4]; 5 days per week for 2 weeks, relative to vehicle control (FIG. 8)): dramatically inhibits | final tumor weight ([4]; 5 days per week for 2 weeks, vs control group (FIG. 10)): significantly lower | expression of PSA and KLK2 ([5]; LN3 cells, CSS media 2d, treated 24 hours (FIG. 6C)): down-regulated | expression of KLK2 [5]: strongly down-regulates | expression of PSA [5]: strongly down-regulates | growth (total cell number) (CWR22rv1 cells): significantly inhibited | androgen-independent growth (total cell number) (CWR22rv1 cells; different concentrations of Senexin B (FIG. 6A)): strongly inhibited | Kd (CDK8): 140 nM

CNC(=O)c1ccc(N2C(=S)N(c3ccc(C#N)c(C(F)(F)F)c3)C(=O)C2(C)C)cc1F [MDV3100, enzalutamide, reference compound]
growth (total cell number) (LNCaP-LN3 cells): weakly inhibited | expression of KLK2 [2]: does not down-regulate | expression of PSA [2]: does not down-regulate | expression of KLK2 [5]: does not down-regulate | expression of PSA [5]: weakly down-regulates | growth (total cell number) (CWR22rv1 cells): does not inhibit
